# Data published in US20060058243A1, “Methods and compositions for treating diabetes mellitis” (priority 2002, published 2006).
# How the values were obtained:
# 3T3-L1 adipocytes = experiment: Glucose transport stimulatory (GTS) activity, 2-deoxy-D-[3H]glucose uptake; type: cell-based; settings: 3T3-L1 adipocytes, FIG. 2
# Description: (§1) PGG, either as a mixture or as single isomer (α or β), is added to either adipocytes (A) or preadipocytes (B). GTS activity (A) and AD activity (B) of PGG are measured by ^3H-glucose uptake. GLUT4 is not expressed in preadipocytes, so glucose uptake can be used as an indirect measurement of adipocyte differentiation.
# Glucose uptake activity in cells may be analyzed by measuring the uptake of 2-deoxy-D-[^3H] glucose using a standard assay. Confluent 3T3-L1 adipocytes grown in 12-well plates are washed twice with serum-free DMEM and incubated with 1 mL of the same medium at 37° C. for 2 h. The cells are washed 3 times with Krebs-Ringer-Hepes (KRP) buffer and incubated with 0.9 mL KRP buffer at 37° C. for 30 min. […] Glucose uptake is initiated by addition of 0.1 mL KRP buffer and 37 MBq/L 2-deoxy-D-[^3H] glucose and 1 mmol/L glucose as final concentrations. After 10 min, glucose uptake is terminated by washing the cells 3 times with cold PBS. The cells are lysed with 0.7 mL of 1% Triton X-100 at 37° C. for 20 min. The radioactivity retained by the cell lysates is determined by a scintillation counter. The dosage that induces the maximal glucose uptake can be selected among the experimental samples.
# 3T3-L1 adipocytes were purchased from ATCC, and maintained and passed as preadipocytes in DMEM supplemented with 10% calf serum in a 37° C. incubator with 10% CO2 as required by the cells. The cells were induced to differentiate into adipocytes by addition of MDI induction cocktail as described in Liu, F., Kim, J., Li, Y., Liu, X., Li, J. & Chen, X. (2001) An extract of Lagerstroemia speciosa L. has insulin-like glucose uptake-stimulatory and adipocyte differentiation-inhibitory activities in 3T3-L1 cells. J. Nutrition 131:2242-224, which is specifically incorporated herein by reference. Varying amounts of α-PGG and β-PGG were then added to the medium and the amount of glucose taken up by control and treated cells determined using a standard glucose uptake assay, as described in Liu et al. As shown in FIG. 2A chemically synthesized and plant derived β-PGG have similar glucose transport stimulatory (GTS). The GTS activity of α-PGG is consistently 10-20% higher than that of β-PGG (FIG. 2).
# Confluent 3T3-L1 adipocytes grown in 12-well plates were washed twice with serum-free DMEM and incubated with 1 mL of the same medium at 37° C. for 2 h. The cells were washed 3 times with Krebs-Ringer-Hepes (KRP) buffer and incubated with 0.9 mL KRP buffer at 37° C. for 30 min. Compounds listed in the table below were then added at 20-40 μM (final concentration?) and adipocytes were incubated at 37° C. for 15 min. Glucose uptake was initiated by addition of 0.1 mL KRP buffer and 37 MBq/L 2-deoxy-D-[3H] glucose and 1 mmol/L glucose as final concentrations. After 10 min, glucose uptake was terminated by washing the cells 3 times with cold PBS. The cells were lysed with 0.7 mL of 1% Triton X-100 at 37° C. for 20 min. The radioactivity retained by the cell lysates is determined by a scintillation counter.
# 3T3-L1 preadipocytes [1] = experiment: Adipocyte differentiation (AD) of preadipocytes, MDI induction, Oil Red O staining and glucose uptake; type: cell-based; settings: about 10 days, 30 μM PGG, FIG. 8
# Description: as §1
# Ten days after induction, the cells were stained with Oil Red 0 and photographed at magnification X200. Only those cells that contain fat vesicles (triglyceride) can be stained.
# After about 10 days MDI induces differentiation, which is clearly visible as the change from fibroblast-like preadipcytes to round-shaped, fat vesicle-containing adipocytes.
# 3T3-L1 adipocytes were purchased from ATCC, and maintained and passed as preadipocytes in DMEM supplemented with 10% calf serum in a 37° C. incubator with 10% CO2 as required by the cells. To test the effect of PGG on adipogenesis, the preadipocytes were incubated either with a differentiation-induction cocktail comprised of 3-isobutyl-1-methylxanthine, […], a cocktail comprised of 3-isobutyl-1-methylxanthine, dexamethasone (MD) and PGG; or with MDI plus PGG.
# In order to study the mechanism by which PGG inhibits 3T3-L1 preadipocyte differentiation, we used gene expression studies. This strategy allows us to determine whether PGG specifically acts on genes that participate in the differentiation process. […] After about 10 days MDI induces differentiation, which is clearly visible as the change from fibroblast-like preadipcytes to round-shaped, fat vesicle-containing adipocytes (FIG. 8 middle).
# 3T3-L1 preadipocytes [2] = experiment: Clonal expansion / cell proliferation assay by LDH activity; type: cell-based
# Description: Preadipocytes were induced to undergo clonal expansion by MDI, or α-PGG, or β-PGG in the presence of MDI. 24 or 48 hrs after induction, the media was removed and the cells were lysed. The […] (LDH) activity of the cell lysates was measured by LDH kit. Cell growth media were also collected and their LDH activity from dead cells was also measured (not shown on this graph). LDH activity is a constant per cell in a given cell type, the LDH activity measured is proportional to the number of cells in the samples.
# A cell proliferation assay was used to determine if PGG inhibits adipocyte differentiation by blocking clonal expansion. […] The basis for the difference between the anomers in clonal expansion and differentiation is not known.
# db/db mice = experiment: Blood glucose in fasting diabetic db/db mice after oral dose; type: in vivo; settings: single oral dose 25 mg/kg body weight, versus vehicle, P<0.01, FIG. 11A
# Description: (§2) FIG. 11. Effect of PGG on blood glucose levels in db/db and ob/ob mice. Various doses of α-PGG were orally delivered without glucose to db/db mice(A) or with glucose to ob/ob mice (B) mice. At different times post the delivery, glucose was determined in samples from tail blood.
# Male db/db (leptin receptor deficient) mice of 8 weeks of age may be used to determine in vivo dosages for simulating glucose uptake The mice are divided into three to four groups depending upon how many dosages are analyzed. Ten μl of a test solution with pre-determined concentrations of the test gallotannin composition is orally administered to the test mice. The negative control mice receive the same amount of water. After the administration, blood is collected from the mouse tail at various times post oral administration. The blood glucose level of a mouse at a given time post administration is measured by applying six μl of blood on a One Touch Basic Complete Diabetes Monitoring System (from Lifescan). The effective dosage range and the optimal dosage can be determined by comparison of the reduction of blood glucose levels by different dosages relative to the glucose level of the negative (water) control group.
# The reduction of the glucose level is about 15-20% depending on the time post α-pGG administration (P<0.01, FIG. 11A).
# ob/ob mice [3] = experiment: Glucose tolerance test in ob/ob mice; type: in vivo
# Description: as §2
# FIG. 12. PGG protects ob/ob mice from hyperglycemia immediately after glucose challenge and hypoglycemia several days after the challenge. At various time points after the glucose challenge, blood glucose levels were measured in tail blood.
# To determine if α-PGG is also effective in improving glucose tolerance in diabetic and obese mice, a glucose tolerance test was performed using ob/ob mice. Glucose or glucose plus α-PGG were orally delivered into male ob/ob mice, and blood glucose levels were measured at various times post glucose/PGG administration.
# A single high does of glucose in ob/ob mice can be fatal, either because of the very high levels of blood glucose levels […] after the glucose challenge or because of the abnormally low glucose levels 2-3 days after the glucose challenge. […] Although the protection mechanisms are unknown at this time, it is very likely that α-PGG protected the ob/ob mice not only by its GTS activity, but also some other activity such as AD-related activity.
# ob/ob mice [4] = experiment: Plasma insulin levels in ob/ob mice after intraperitoneal injection; type: in vivo; settings: single intraperitoneal injection
# Description: Diabetic and obese ob/ob mice were injected intraperitoneally with either water or α-PGG. Plasma from each mouse was isolated at various times post injection and was measured for insulin levels.
# [5] = in the presence of MDI, FIG. 10
compound,measurement,setting,value
"O=C(OC[C@H]1O[C@H](OC(=O)c2cc(O)c(O)c(O)c2)[C@H](OC(=O)c2cc(O)c(O)c(O)c2)[C@@H](OC(=O)c2cc(O)c(O)c(O)c2)[C@@H]1OC(=O)c1cc(O)c(O)c(O)c1)c1cc(O)c(O)c(O)c1 [α-PGG, 1,2,3,4,6-penta-O-galloyl-α-D-glucose]",GTS activity higher than that of β-PGG,3T3-L1 adipocytes,10-20%
same,differentiation of preadipocytes treated with MDI plus compound,3T3-L1 preadipocytes [1],abolishes the differentiation
same,cell-killing compared to MDI induced cells,3T3-L1 preadipocytes [2]; data not shown,without significantly increased cell-killing
same,first round of clonal expansion,3T3-L1 preadipocytes [2]; [5],not inhibited
same,second round of clonal expansion,3T3-L1 preadipocytes [2]; [5],partially inhibited
same,reduction of the blood glucose level,db/db mice,15-20%
same,protection from extremely low glucose levels after glucose challenge,"ob/ob mice [3]; 2-5 days after challenge, FIG. 12",protected these mice from suffering extremely low glucose levels
same,time after treatment at which improved blood glucose levels could still be observed,"ob/ob mice [3]; ob/ob mice, oral",≥ 24 h
same,blood glucose levels compared to glucose alone,"ob/ob mice [3]; oral glucose plus α-PGG, P<0.001, FIG. 11B",significantly lower blood glucose levels
same,plasma insulin levels versus water,ob/ob mice [4],significantly lower plasma insulin levels
